Columns and labels:
AR = target: T1, AR (Homo sapiens, UniProt P10275, T878A); test: Western blot analysis of AR expression in JC9-treated LNCaP cells over 5 days; assay type: cell-based
T1 construct: LNCaP cells express an endogenous mutant AR that is found in prostate cancer patients; host or cells: LNCaP
T1 sequence (P10275 1-920 T878A): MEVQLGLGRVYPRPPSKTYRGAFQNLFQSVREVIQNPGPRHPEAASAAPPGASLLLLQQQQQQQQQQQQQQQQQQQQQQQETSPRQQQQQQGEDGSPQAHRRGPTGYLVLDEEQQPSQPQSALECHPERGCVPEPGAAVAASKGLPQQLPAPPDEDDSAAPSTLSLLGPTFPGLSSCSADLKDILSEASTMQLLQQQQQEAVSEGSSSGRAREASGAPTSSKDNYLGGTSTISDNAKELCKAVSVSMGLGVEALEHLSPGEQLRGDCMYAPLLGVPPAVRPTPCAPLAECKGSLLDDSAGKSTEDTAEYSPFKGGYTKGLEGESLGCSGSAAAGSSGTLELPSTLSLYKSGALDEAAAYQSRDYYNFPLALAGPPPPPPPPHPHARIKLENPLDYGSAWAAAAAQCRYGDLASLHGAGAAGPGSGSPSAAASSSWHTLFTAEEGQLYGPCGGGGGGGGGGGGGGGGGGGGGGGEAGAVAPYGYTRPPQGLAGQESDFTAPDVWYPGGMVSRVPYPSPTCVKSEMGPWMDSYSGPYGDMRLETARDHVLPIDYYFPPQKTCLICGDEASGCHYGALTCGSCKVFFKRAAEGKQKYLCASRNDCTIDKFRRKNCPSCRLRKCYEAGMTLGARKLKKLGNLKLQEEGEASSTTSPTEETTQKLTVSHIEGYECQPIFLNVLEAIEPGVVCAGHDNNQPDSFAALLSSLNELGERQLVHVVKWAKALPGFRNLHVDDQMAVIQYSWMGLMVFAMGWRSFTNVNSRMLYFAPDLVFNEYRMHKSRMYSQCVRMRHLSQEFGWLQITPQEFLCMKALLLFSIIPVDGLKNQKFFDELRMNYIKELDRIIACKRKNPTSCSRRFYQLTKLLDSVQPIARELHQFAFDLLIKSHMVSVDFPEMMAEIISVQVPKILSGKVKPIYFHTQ
Text: A Western blot method suitable for detecting degradation of the androgen receptor (AR) has been previously described (Su et al., 1999). Briefly, cells (for example, LNCap cells) are harvested either in 2× sodium dodecyl sulfate (SDS) loading buffer or in radioimmunoprecipitation assay (RIPA) lysis buffer (see “Antibodies: A Laboratory Manual”, E. Harlow and D. Lane, Cold Spring Harbor Laboratory, 1988) containing 10 micrograms/milliliter of benzamidine, 10 micrograms/milliliter of trypsin inhibitor, and 1 millimolar of phenylmethylsulfonyl fluoride (PMSF). Total protein (40 micrograms/sample, or as desired) from cell lysate is separated on a SDS-PAGE gel. […] The membrane is rinsed with PBST, and a suitable visualization procedure is used to detect the secondary antibody (for example, horseradish peroxidase can be detected with a colorimetric substrate or by a chemiluminescent substrate such as that provided by the enhanced chemiluminescence (ECL Plus) kit from Amersham). […] Quantification of the protein signals can be carried out by densitometry, using appropriate software (ImageJ software from the National Institutes of Health).
AR is the key factor in regulating prostate cancer cells' response to androgens. […] A color detection method was subsequently employed to examine AR and actin protein signals in the membranes, and the resultant protein signals were quantitated by densitometry. […]

androgen receptor (AR) = target: T2, androgen receptor (AR) (Homo sapiens, UniProt P10275, T878A); test: Western blot of LNCaP cell lysates, AR; assay type: cell-based; conditions: 1 or 2 micromolar, 24 hours, presence or absence of DHT
T2 construct: LNCaP cells express an endogenous mutant AR that is found in prostate cancer patients; host or cells: LNCaP
T2 sequence (P10275 1-920 T878A): T1 sequence (P10275 1-920 T878A)
Description: Human prostate cancer LNCaP cells and T47D cells were plated at a density of 7×10^5 cells per 60 millimeter tissue culture dish in […] (RPMI) medium containing 10% FBS. The medium was changed to RPMI or DME medium containing 10% charcoal-stripped serum 24 hours later to deplete cellular androgens or estrogens. After another 24 hours, treatment with the test compounds began. The test dose of JC15 was 1 or 2 micromolar and the test does of JC9 was 1, 5 and 10 micromolar. LNCap cells also received dihydrotestosterone (DHT) (3 nanomolar). Control cells received a corresponding amount of the vehicle, dimethylsulfoxide (DMSO) (<0.04%) for an equivalent exposure time. Cells were incubated with JC15 for 24 or 48 hours, and were lysed in 250 microliters of 1×SDS/PAGE loading buffer. Approximately 40 micrograms of total cellular protein was loaded in each lane of a pre-cast gel (NuPAGE, Invitrogen). Protein separation and transfer were performed following the manufacturer's instructions.
For the prostate cell lysates, androgen receptor (AR) protein was visualized by incubating the resultant membranes with an anti-AR antibody (BD-PharMingen), followed by chemiluminescence detection (ECL Plus, Amersham). […] The resultant protein signals were quantified using densitometry and NIH ImageJ software.

SMILES	time at which AR reduction was first observed (AR; 5 μM JC9, continuous incubation) [days]	AR level remaining (normalized AR signal, percentage of baseline Day 0) (AR; 5 μM JC9, end of 5-day incubation) [%]	cellular concentration of AR (androgen receptor (AR))
COc1ccc(C=CC(=O)C=C(O)C=Cc2ccc(OC)c(OC)c2)cc1OC [JC9, 5-hydroxy-1,7-bis(3,4-dimethoxyphenyl)-1,4,6-heptatrien-3-one]	2	~10	
CCOC(=O)CCC(C(=O)C=Cc1ccc(O)c(OC)c1)C(=O)C=Cc1ccc(O)c(OC)c1 (stereo not drawn) [JC15, 7-(4-hydroxy-3-methoxyphenyl)-4-[3-(4-hydroxy-3-methoxyphenyl)acryloyl]-5-oxo-hept-6-enoic acid ethyl ester]			decreased

Reference: patent publication US20060084704A1, “Methods and compositions for enhancing degradation of nuclear receptor transcription factors and uses thereof” (priority 2004, published 2006)
